The values below come from ChEMBL document CHEMBL2384992, “Conformation constraint of anilides enabling the discovery of tricyclic lactams as potent MK2 non-ATP competitive inhibitors” (Bioorg Med Chem Lett, 2013).

Series [1] can be described thus: Toxicity in human SW1353 cells. Format: cell-based.
In series [2] the target is MAP kinase-activated protein kinase 2 (Homo sapiens, UniProt P49137).
Description: Inhibition of MK2 (unknown origin) phosphorylation using TAMRA labeled peptide as substrate incubated 30 mins before substrate addition measured after 30 mins
The target in series [3] is Tyrosine-protein kinase Lck (Homo sapiens, UniProt P06239). The series is described as follows: Inhibition of LCK (unknown origin).
The target of series [4] is Rho-associated protein kinase 2 (Homo sapiens, UniProt O75116). In words: Inhibition of ROCK2 (unknown origin).
Series [5] deals with Testis-specific serine/threonine-protein kinase 2 (Homo sapiens, UniProt Q96PF2). In words: Inhibition of TSSK2 (unknown origin).
The target in series [6] is Protein kinase C alpha type (Homo sapiens, UniProt P17252). The series is described as follows: Inhibition of PKCA (unknown origin).
The target in series [7] is Serine/threonine-protein kinase Chk1 (Homo sapiens, UniProt O14757). In words: Inhibition of CHK1 (unknown origin).
Chain of Serine/threonine-protein kinase Chk1 (O14757 whole entry): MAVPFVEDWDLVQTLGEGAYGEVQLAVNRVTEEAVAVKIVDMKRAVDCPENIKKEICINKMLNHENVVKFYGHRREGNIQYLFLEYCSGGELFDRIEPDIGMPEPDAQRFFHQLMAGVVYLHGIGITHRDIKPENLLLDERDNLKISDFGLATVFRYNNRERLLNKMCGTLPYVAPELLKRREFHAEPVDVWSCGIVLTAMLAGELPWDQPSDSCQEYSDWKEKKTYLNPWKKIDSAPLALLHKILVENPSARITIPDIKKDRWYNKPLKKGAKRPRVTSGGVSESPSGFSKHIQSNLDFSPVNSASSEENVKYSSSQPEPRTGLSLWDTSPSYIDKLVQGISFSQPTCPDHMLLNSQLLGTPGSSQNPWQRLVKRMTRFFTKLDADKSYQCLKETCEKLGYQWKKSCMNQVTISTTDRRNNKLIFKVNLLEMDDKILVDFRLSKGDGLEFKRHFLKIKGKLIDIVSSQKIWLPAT
Series [8] deals with Serine/threonine-protein kinase Nek2 (Homo sapiens, UniProt P51955). In words: Inhibition of NEK2 (unknown origin).
Series [9] concerns the target Mitogen-activated protein kinase 1 (Homo sapiens, UniProt P28482). In words: Inhibition of ERK2 (unknown origin).
Series [10] addresses Serine/threonine-protein kinase 3 (Homo sapiens, UniProt Q13188). In words: Inhibition of MST2 (unknown origin).
The target in series [11] is Tyrosine-protein kinase JAK2 (Homo sapiens, UniProt O60674). The series is described as follows: Inhibition of JAK2 (unknown origin).
Series [12] deals with Calcium/calmodulin-dependent protein kinase type IV (Homo sapiens, UniProt Q16566). The series is described as follows: Inhibition of CAMK4 (unknown origin).
Chain of Calcium/calmodulin-dependent protein kinase type IV (Q16566 whole entry): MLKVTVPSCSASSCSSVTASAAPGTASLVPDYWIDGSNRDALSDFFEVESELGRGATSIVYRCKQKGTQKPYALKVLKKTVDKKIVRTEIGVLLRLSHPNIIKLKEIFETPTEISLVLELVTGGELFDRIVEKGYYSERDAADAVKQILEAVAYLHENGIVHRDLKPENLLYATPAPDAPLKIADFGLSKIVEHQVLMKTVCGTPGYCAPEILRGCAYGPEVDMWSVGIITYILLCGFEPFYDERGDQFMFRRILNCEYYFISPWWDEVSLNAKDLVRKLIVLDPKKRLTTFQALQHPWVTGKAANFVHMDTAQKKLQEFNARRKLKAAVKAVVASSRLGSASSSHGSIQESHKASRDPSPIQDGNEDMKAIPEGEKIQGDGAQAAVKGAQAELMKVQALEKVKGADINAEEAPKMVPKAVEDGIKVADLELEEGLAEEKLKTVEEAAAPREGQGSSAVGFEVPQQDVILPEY
Series [13] has as its target Interleukin-1 receptor-associated kinase 4 (Homo sapiens, UniProt Q9NWZ3). In words: Inhibition of IRAK4 (unknown origin).
In series [14] the target is RAC-alpha serine/threonine-protein kinase (Homo sapiens, UniProt P31749). In words: Inhibition of AKT1 (unknown origin).
For series [15], the target named is Serine/threonine-protein kinase PLK3 (Homo sapiens, UniProt Q9H4B4). The series is described as follows: Inhibition of PLK3 (unknown origin).
For series [16], the target named is Receptor-type tyrosine-protein kinase FLT3 (Homo sapiens, UniProt P36888). In words: Inhibition of FLT3 (unknown origin).
Chain of Receptor-type tyrosine-protein kinase FLT3 (P36888 whole entry, canonical isoform): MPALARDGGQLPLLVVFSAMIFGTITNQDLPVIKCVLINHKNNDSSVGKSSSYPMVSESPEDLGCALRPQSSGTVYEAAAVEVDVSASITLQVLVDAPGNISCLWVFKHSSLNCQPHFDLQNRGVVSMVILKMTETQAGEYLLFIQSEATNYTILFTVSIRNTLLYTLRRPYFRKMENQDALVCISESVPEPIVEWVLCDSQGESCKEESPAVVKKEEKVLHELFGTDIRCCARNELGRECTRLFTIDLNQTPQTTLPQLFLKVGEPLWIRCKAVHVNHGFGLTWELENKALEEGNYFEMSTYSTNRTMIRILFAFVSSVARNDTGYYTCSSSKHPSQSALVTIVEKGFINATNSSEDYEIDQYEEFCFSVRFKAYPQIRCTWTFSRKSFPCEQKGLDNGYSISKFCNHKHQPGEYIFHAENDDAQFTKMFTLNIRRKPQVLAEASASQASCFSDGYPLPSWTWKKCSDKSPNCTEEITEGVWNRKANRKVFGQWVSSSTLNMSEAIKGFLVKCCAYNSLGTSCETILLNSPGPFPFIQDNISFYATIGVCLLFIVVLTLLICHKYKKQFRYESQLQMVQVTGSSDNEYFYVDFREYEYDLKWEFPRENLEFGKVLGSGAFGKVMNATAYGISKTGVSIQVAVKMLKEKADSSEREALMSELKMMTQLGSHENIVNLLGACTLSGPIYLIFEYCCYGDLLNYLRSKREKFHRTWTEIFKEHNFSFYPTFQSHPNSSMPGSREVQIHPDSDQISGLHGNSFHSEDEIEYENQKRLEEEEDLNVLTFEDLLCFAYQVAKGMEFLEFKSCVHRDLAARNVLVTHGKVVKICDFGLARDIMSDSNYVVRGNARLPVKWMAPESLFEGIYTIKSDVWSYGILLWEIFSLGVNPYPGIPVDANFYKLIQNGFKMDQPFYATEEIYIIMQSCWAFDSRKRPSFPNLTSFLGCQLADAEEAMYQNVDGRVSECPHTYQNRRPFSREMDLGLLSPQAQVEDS
For series [17], the target named is Casein kinase I isoform delta (Homo sapiens, UniProt P48730). The series is described as follows: Inhibition of CSNK1D (unknown origin).
Chain of Casein kinase I isoform delta (P48730 whole entry, canonical isoform): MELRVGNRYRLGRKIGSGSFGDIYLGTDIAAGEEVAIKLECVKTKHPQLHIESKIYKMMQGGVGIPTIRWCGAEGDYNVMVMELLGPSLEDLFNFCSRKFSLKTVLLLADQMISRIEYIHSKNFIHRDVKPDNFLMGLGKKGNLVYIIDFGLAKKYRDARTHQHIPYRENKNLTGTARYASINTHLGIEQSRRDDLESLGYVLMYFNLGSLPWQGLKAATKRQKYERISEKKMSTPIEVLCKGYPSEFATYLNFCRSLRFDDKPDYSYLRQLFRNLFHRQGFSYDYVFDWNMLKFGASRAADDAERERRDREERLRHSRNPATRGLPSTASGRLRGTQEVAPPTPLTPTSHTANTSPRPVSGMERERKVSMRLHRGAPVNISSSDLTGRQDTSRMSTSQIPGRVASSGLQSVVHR
The target in series [18] is Inhibitor of nuclear factor kappa-B kinase subunit beta (Homo sapiens, UniProt O14920). The series is described as follows: Inhibition of IKKB (unknown origin).
Series [19] deals with Ephrin type-B receptor 4 (Homo sapiens, UniProt P54760). In words: Inhibition of EPHB4 (unknown origin).
Chain of Ephrin type-B receptor 4 (P54760 whole entry): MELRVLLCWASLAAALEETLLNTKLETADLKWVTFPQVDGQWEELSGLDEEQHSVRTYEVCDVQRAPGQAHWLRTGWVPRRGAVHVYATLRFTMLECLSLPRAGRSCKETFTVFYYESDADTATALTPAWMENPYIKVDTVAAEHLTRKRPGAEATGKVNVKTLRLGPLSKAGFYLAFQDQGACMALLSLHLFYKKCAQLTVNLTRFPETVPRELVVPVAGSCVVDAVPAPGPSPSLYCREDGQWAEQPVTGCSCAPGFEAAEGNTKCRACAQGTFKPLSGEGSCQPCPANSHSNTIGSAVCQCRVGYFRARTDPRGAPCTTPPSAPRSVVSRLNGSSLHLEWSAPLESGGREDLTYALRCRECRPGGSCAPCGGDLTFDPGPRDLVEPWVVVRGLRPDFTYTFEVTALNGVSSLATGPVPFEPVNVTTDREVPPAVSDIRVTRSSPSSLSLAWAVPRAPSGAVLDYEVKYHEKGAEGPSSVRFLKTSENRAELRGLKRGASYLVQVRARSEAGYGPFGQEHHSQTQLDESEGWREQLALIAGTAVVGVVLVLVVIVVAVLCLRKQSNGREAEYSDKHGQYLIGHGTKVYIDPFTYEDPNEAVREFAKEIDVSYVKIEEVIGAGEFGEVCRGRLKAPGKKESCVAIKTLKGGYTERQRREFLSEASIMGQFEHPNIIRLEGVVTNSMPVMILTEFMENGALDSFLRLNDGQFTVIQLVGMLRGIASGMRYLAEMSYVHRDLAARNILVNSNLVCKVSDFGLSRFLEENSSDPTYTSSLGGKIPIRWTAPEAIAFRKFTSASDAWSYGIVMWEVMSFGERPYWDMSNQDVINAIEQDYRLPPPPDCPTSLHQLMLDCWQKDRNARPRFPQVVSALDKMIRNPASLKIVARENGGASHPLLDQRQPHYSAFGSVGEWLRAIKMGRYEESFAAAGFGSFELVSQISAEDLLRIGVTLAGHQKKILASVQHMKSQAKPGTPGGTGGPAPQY
Series [20] concerns the target Insulin-like growth factor 1 receptor (Homo sapiens, UniProt P08069). The series is described as follows: Inhibition of IGF1R (unknown origin).
Series [21] addresses Hepatocyte growth factor receptor (Homo sapiens, UniProt P08581). The series is described as follows: Inhibition of MET (unknown origin).
The target in series [22] is Glycogen synthase kinase-3 beta (Homo sapiens, UniProt P49841). The series is described as follows: Inhibition of GSK3B (unknown origin).
Chain of Glycogen synthase kinase-3 beta (P49841 whole entry): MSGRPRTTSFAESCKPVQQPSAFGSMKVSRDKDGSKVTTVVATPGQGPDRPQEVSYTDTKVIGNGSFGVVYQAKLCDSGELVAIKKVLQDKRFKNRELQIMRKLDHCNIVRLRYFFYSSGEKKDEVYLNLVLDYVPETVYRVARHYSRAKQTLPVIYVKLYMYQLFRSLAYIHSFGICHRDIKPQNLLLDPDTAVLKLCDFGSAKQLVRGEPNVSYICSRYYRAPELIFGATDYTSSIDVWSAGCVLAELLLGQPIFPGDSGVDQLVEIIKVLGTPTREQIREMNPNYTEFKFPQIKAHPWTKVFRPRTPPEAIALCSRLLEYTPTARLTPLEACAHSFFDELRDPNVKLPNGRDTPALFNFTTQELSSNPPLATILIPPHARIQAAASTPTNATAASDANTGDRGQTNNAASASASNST
Series [23] deals with Epidermal growth factor receptor (Homo sapiens, UniProt P00533). In words: Inhibition of EGFR (unknown origin).
The subject of series [24] is THP-1. The series is described as follows: cells. The note with it: Homo sapiens.
Description: Antiinflammatory activity in human THP1 cells assessed as inhibition of LPS-induced TNFalpha production treated 30 mins before LPS addition measured after 3 hrs by ELISA

Chain of Mitogen-activated protein kinase 1 (P28482 whole entry): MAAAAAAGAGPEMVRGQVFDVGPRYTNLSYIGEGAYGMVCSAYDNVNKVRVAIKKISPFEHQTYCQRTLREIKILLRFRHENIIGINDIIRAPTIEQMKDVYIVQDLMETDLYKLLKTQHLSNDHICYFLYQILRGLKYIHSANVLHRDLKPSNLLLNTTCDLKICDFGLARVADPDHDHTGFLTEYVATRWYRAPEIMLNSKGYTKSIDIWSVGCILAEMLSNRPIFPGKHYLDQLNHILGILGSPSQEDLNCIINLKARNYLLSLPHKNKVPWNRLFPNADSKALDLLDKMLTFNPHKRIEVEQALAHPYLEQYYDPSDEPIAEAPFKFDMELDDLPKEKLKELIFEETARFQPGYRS

In the case of `O=C1c2oc(-c3ccc(Cl)cc3)cc2Cc2cc(N3CCNCC3)ccc2N1Cc1ccccn1`, the 50% cytotoxic concentration (CC50) in [1] is 17.4 µM. This counts as double-digit micromolar.

Regarding `O=C1c2oc(-c3ccc(Cl)cc3)cc2Cc2cc(N3CCNCC3)ccc2N1Cc1ccccc1-c1cccnc1`, the IC50 is 0.022 µM in series [2]; > 19 µM in series [3]; > 20 µM in series [4]; > 30 µM in series [5]; 10 µM in series [6]; > 18 µM in series [7]. Moreover, the IC50 is 13 µM in [8]; > 30 µM in series [9]; > 12 µM in series [10]; 11 µM in series [11]; 27 µM in [12]; 26 µM in [13]. Further, the IC50 in series [14] was 16 µM; in series [15] it was > 30 µM; in series [16] it was > 30 µM; in series [17] it was > 30 µM; in series [18], 24 µM; in series [19] it was > 30 µM. Also, the IC50 in series [20], in [21], in series [22] and in series [23] was > 30 µM in each case.

`N#Cc1ccc(-c2cc3c(o2)C(=O)N(Cc2ccccc2-c2cncnc2)c2ccc(N4CCNCC4)cc2C3)cc1` yielded an EC50 in series [24] of 0.15 µM.

The CC50 is the concentration that lowers cell viability or growth by half. In general, IC50 refers to the concentration needed to halve the response being measured. For orientation: EC50 means the concentration that produces a half-maximal response.
